Entries after “also recorded” stand apart in the source; their conditions may differ. Like-named read-outs stand apart in the source and are kept apart here.
What was measured:
[1] = system: TMPRSS2-ERG fusion transcript; test: TMPRSS2-ERG fusion transcript expression in non-ERβ-overexpressing VCaP cells
Description: (§1) Fusion status was determined by ERG break-apart FISH assay (Pemer, et al., Cancer Res. 66:8337-8341 (2006)) and QPCR (for cases not assessable by FISH). An aliquot of the RNA used for DASL was used for QPCR. cDNA was synthesized as above. TMPRSS2-ERG fusion product was determined using SYBR green assay (Qiagen) with TMPRSS2-ERG_f and TMPRSS2-ERG_r primers (Tomlins, et al., Science 310:644-648 (2005)). RPL13A was used for normalization. For estrogen experiments, cDNA was synthesized using the Omniscript RT kit (Qiagen) and HMBS was used for normalization. Relative quantitation was carried out using the comparative Ct method.
(§2) The prostate cancer cell lines NCI-H660 and VCaP were maintained according to ATCC instructions. The cells were hormone-deprived by culture for three days in their respective phenol red-free media (for NCI-H660 without E2 and hydrocortisone) supplemented with 5% CDT-FBS (Invitrogen). Cells were challenged with hormones or vehicle for 12, 24 or 48 hours.
(§3) Reagents were used at a final concentration of 10^−8M.

[2] = system: NCI-H660 prostate cancer cell line; test: Cell growth assay (Cell Titer-Glo luminescent assay); format: cell-based; conditions: final concentration 10^−8M, relative cell number 2-12 d
Description: The prostate cancer cell lines NCI-[…] and VCaP were maintained according to ATCC instructions. […] NCI-[…] cells were seeded in a 96-well plate ( 5×10^3 cells/well) and stimulated with hormone or vehicle alone. Relative cell number was determined before (time 0 used for normalization) and after stimulation (2, 3, 6, 8, 10, 12 d) using the Cell Titer-Glo luminescent assay (Promega).

[3] = system: TMPRSS2-ERG fusion transcript; test: TMPRSS2-ERG fusion transcript expression in ERβ-overexpressing VCaP cells
Description: as §1, §2, §3
VCaP cells were transiently transfected with ERβ containing plasmid using Lipofectamine2000 (Invitrogen) for 6 h. Transfection medium was removed after 6 h, cells were washed in PBS twice, and phenol red-free DMEM (Cellgro) supplemented with 5% CDT-FBS (Invitrogen) was added. Cells were challenged with hormones or vehicle 48 hours after transfection. NCI-H660 cells were transiently transfected with smart pool siRNA against ERβ (Dharmacon).

[4] = system: TMPRSS2-ERG fusion transcript; test: TMPRSS2-ERG fusion transcript expression (QPCR) in NCI-H660 cells
Description: as §1, §2, §3

[5] = NCI-H660 cells, final concentration 10^−8M, 12, 24 or 48 hours
[6] = ERβ-overexpressing VCaP cells (VCaP-ERβ, ERα negative), final concentration 10^−8M

Row | SMILES | growth of NCI-H660 cells [2] | TMPRSS2-ERG expression [4, 5] | TMPRSS2-ERG fusion transcript expression [3, 6] | TMPRSS2-ERG expression [4] | also measured
1 | N#CC(Cc1ccc(O)cc1)c1ccc(O)cc1 (stereo not drawn) [DPN, diarylpropionitrile] | suppressed growth | suppressed expression of the fusion; also recorded: significantly decreased TMPRSS2-ERG expression |  |  | TMPRSS2-ERG fusion transcript expression [1]: down-regulation was not seen; TMPRSS2-ERG fusion transcript expression [3]: down-regulation of the TMPRSS2-ERG fusion transcript
2 | C[C@]12CC[C@@H]3c4ccc(O)cc4CC[C@H]3[C@@H]1CC[C@@H]2O [E2, 17β-estradiol] | significantly inhibited |  | down-regulation of the TMPRSS2-ERG fusion transcript |  | TMPRSS2-ERG fusion transcript expression ([1]; non-ERβ-overexpressing VCaP cells, final concentration 10^−8M): down-regulation was not seen
3 | CCCc1c(-c2ccc(O)cc2)nn(-c2ccc(O)cc2)c1-c1ccc(O)cc1 [PPT, propylpyrazole triol] |  |  |  | increased TMPRSS2-ERG expression | 
4 | C[C@]12CC[C@@H]3c4ccc(O)cc4C[C@@H](CCCCCCCCC[S+]([O-])CCCC(F)(F)C(F)(F)F)[C@H]3[C@@H]1CC[C@@H]2O (stereo partly drawn) [fulvestrant] |  | reduced the expression of the fusion transcript |  |  | 
5 | O=C(c1ccc(OCCN2CCCCC2)cc1)c1c(-c2ccc(O)cc2)sc2cc(O)ccc12 [raloxifene] |  | up-regulation of TMPRSS2-ERG | remarkable down-regulation of the fusion transcript |  | 
6 | Oc1ccc(/C=C/c2cc(O)cc(O)c2)cc1 [resveretrol] |  |  |  | reduced the expression of the fusion transcript | 

— patent publication US8106037B2, “Identification and treatment of estrogen responsive prostate tumors” (The Brigham and Women's Hospital, Inc., priority 2007, dated 2012)
